Data from US20210100905A1, “APPLICATION OF COMPOUND OR TRADITIONAL CHINESE MEDICINE EXTRACT IN PREPARATION OF NUCLEIC ACID DELIVERY AGENT, AND RELATED PRODUCTS” (INSTITUTE OF BASIC MEDICAL SCIENCES CHINESE ACADEMY OF …, priority 2018, published 2021).
Entries after “also recorded” stand apart in the source; their conditions may differ.

Experiments:
[1] = In vivo delivery experiment of lipid nucleic acid mixture (Example 13); design: species or system C57 mice; details: oral administration, 6 hours; for delivery effect into mouse blood and tissues (heart, spleen, kidney or intestine) compared with POPC: FIG. 117a-146b, 100 μg lipid : 1 nmol sRNA
Experimental: 1. Experiment animals: C57 mice, male, approximately 6 weeks old, 20-24g. Mice were raised in the SPF room of the Animal Center of the Institute of Basic Medical Sciences of Chinese Academy of Medical Sciences. The mice were fasted for 12 hours before intragastric administration.
2. Preparation of the mixture of lipid and small RNA: the prepration was conducted on the basis of a dose of 100 μg lipid: lnmol single stranded small RNA PGY-sRNA-26 per mouse as follows: lnmol of each sRNA was dissolved with 500 μl DEPC water in a glass tube, 100 μg corresponding lipid solution No.33, No.35,No.37, No.42, No.43, No.44, No.45, No.46, No.47, No.48, No.49, No.50, No.51, No.52, No.53, No.54, No.55, No.56, No.57, No.58, No.59, No.60, No.61, No.62, No.65, No.66, No.67, No.68, No.69 or No.70 (lipid chloroform solution with a concentration as shown in Table 1-1) was added, pipetted to mix thoroughly. The solution was heated in water bath at 90° C. for 15 min, naturally cooled down, and was administered via gavage.
1) Tissue sampling and extraction of RNA: 6 hours after gavage in mice, 500 μl of blood was taken from the eyeball, and was added 1.5 ml Trizol Reagent LS to thoroughly mix and lyse. Tissue sampling: the mouse was sarcrified by breaking its neck, and the thoracic and abdominal cavities of the mouse was exposed to remove the heart/whole spleen/two kidneys/intestine (5 cm of upper end), which was immediately added 2 ml Trizol Reagent (purchased from Invitrogen) and homogenized until complete lysis with a tissue homogenizer.
(§1) 2) Reverse transcription of sRNA to cDNA: Reverse Transcription Kit (High-Capacity cDNA Reverse Transcription Kits, Applied Biosystems, cat. no. 4368813), was used to reverse transcribe the total RNA to cDNA, and the reverse system was as follows: template RNA (150 ng/μL) 10 μL, 10× RT buffer, 2.0 μL, 25× dNTP Mix (100 mM) 0.8 μL, random primers 2.0 μL, the Multi Scribe™ reverse Transcriptase 1.0 RNase inhibitor 1.0 μL, nuclease-free H2O 3.2 μL. After a brief centrifugation, the reaction was loaded in a PCR reactor. The reaction conditions were as follows: (1) 25° C., 10 min; (2) 37° C., 120 min; (3) 85° C., 5 min; (4) 4° C., termination of the reaction. After the reaction, 20 μL RNase-free ddH2O was added to make up the final volume to 40 μL.
LightCycler 480 fluorescence quantitative PCR instrument was used, and the PCR reaction conditions were: 95° C. , 5 min for pre-denaturation, followed by the PCR amplification cycle: (1) 95° C., 10 s; (2) 55° C., 10 s; (3) 72° C., 20 s; a total of 40 cycles; 40° C. for 10 s in the end to cool down. The forward primer and reverse primer of the amplification reaction were designed and synthesized by Beijing Qing Ke New Industrial Biotechnology Co., Ltd. (U6 F primer: GTGCAGGGTCCGAGGT (SEQ ID NO: 24), PGY-sRNA-26F primer: […] (SEQ ID NO: 34), reverse primer miR all rev: GTGCACGCTCCGAGGT (SEQ ID NO: 26)).
(§2) 3) The relative expression amount was calculated by the 2-ΔCt method.
The data were represented in the form of mean±SEM. The parameter difference between the experimental group and the control group was evaluated by unpaired t test. The data were statistically analyzed by GraphPad Prism software, and P<0.05 was considered statistically significant.

[2] = system: A549 cell (human lung adenocarcinoma cell); assay: In vitro delivery of lipid nucleic acid mixture, RT-qPCR of intracellular small RNA; format: cell-based; details: for delivery of HJT-sRNA-m7 double-stranded RNA into A549 cells (real-time PCR): single lipid prepared by boiling or reverse evaporation method, RNA 100 nM, FIGS. 76, 91, 96, 99, 104, 106, 107
Experimental: (§3) 3.1 NCI-N87 cell (gastric cancer cell), MRC-5 cell (lung fibroblast), A549 cell (lung cancer cell) were cultured to logarithmic growth phase, and then plated to a six-well plate at cell density of 1×10^6/2 mL medium/well; MRC-5 cell was cultured in Eagle's MEM medium (MEM, Gibco); A549 cell was cultured in Ham's F-12 medium (HyClone); NCI-N87 cell was cultured in RPMI-1640 medium (HyClone); followed by incubation overnight at 37° C., and the follow-up experiments were performed after the cells were attached to the walls.
(§4) 3.3 After co-incubation with the small RNA for 3 hours, the cells were washed 2-3 times with PBS. The cells were harvested with TRIzol lysis buffer, and the total RNA was extracted. The abundance of small RNA that entered cells was detected by RT-qPCR, and the localization of RNA was detected by fluorescence in situ hybridization; protocols of each detection method were as follows:
(§5) 1) The sRNA was reverse transcribed to cDNA: Reverse Transcription Kit (High-Capacity cDNA Reverse Transcription Kits, Applied Biosystems, cat. No. 4368813) was used to reverse transcribe sRNA into cDNA by stem-loop method, and the reverse transcription system was as follows: RNA template (150 ng/μl) 10 μl, 10×RT buffer, 2.0 μl, 25× dNTP Mix (100 mM) 0.8 μl, U6 RT stem-loop primer 2.0 μl, HJT-sRNA-RT-m7 stem-loop primer 2.0 μl, MultiScribe™ reverse transcriptase 1.0 μl, RNase inhibitor 1.0 μl, nuclease-free H2O 1.2 μl, loaded into a PCR reactor after brief centrifugation, the reaction conditions were as follows: (1) 25° C., 10 min; (2) 37° C., 120 min; (3) 85° C., 5 min; (4) 4° C., termination of the reaction. 20 μl RNase-free ddH2O was added to make up the final volume to 40 μl after the reaction. The stem-loop primer used in the reverse transcription process was synthesized by Beijing Tsingke Biotechnology Co., Ltd.
(§6) 2) Quantitative PCR amplification reaction: the qPCR reaction system has a total volume of 10 μl, containing: 5 μL 2×SYBR Green Master Mix, 0.5 μl forward primer ([…]), 0.5 μl reverse primer (10 μM), 1 μl cDNA by reverse transcription, 3 RNase-free dH2O. LightCycler 480 fluorescence quantitative PCR instrument was used, and the PCR reaction conditions were: 95° C. for 5 min for pre-denaturation, followed by PCR amplification cycle: (1) 95° C., 10 s; (2) 55° C., 10 s; (3) 72° C. , 20 s; a total of 40 cycles; 40° C. for 10 s in the end to cool down. Both the forward and reverse primers of the amplification reaction were designed and synthesized by Beijing Tsingke Biotechnology Co., Ltd.
(§7) 3) The relative expression level was calculated by 2-ΔCt method.
(§8) 100 μl lipid in diethyl ether solution was prepared, and grouped according to the lipid numbers shown in Table 1 (the lipid concentrations are shown in the table below). To the lipid solution was added 20 μl nucleic acid solution (HJT sRNA or siRNA) at the volume ratio of 5:1, and sonicated for after 3 min. The diethyl ether was removed by evaporation at 55° C., and then 100 μl DEPC water was added for hydration to give nucleic acid lipid mixture.
(§9) 100 μL of the nucleic acid solution (HJT sRNA or siRNA) was added to 2-5 μL of the lipid in chloroform (the concentration was shown in Table 1), mixed, and heated at 80-100° C. for 15-30 min to give nucleic acid lipid mixture.
(§10) 3.1.1 MRC-5 cell (pulmonary embryonic fibroblast), A549 cell (human lung adenocarcinoma cell), Caco-2 cell (human colon adenocarcinoma cell) (purchased from the Cell Resource Center of the Institute of Basic Medical Sciences, Chinese Academy of Medical Sciences) were cultured to logarithmic growth phase, then plated into 12-well plates at a cell density of 6×10^5/1 mL medium/well; MRC-5 and Caco-2 cells were cultured in Eagle's MEM medium (MEM, Gibco); A549 cells were cultured in Ham's F-12 medium (HyClone); followed by incubation overnight at 37° C., and the follow-up experiments were performed after the cells were attached to the walls. […]

[3] = system: MRC-5 cell (lung fibroblast); assay: as above; format: cell-based; details: single lipid; boiling method; FIGS. 78, 92, 103
Experimental: as §3, §4, §5, §6, §7, §8, §9, §10

[4] = In vivo delivery of single-stranded sRNA by single lipid, gavage (Example 11); design: species or system C57 mice; details: FIGS. 108, 112-115; oral (gavage), 10 μL lipid, sRNA 1 nmol each, heating method, 12 hours; vs POPC and Lipofectamine RNAiMAX
Experimental: 1. Experimental animals: C57 mice, male, approximately 6 weeks old.
2. Manufacture of lipid mixture: the prepration was conducted on the basis of a dose of 10 μ1 lipid-1 nmol sRNA per mouse as follows: dissolved 1 nmol of each sRNA in 500 μl DEPC water, added 10 μl of the corresponding lipid, pipette to mix thoroughly, and then naturally cooled down after water bath for 15 min at 90° C., and administered via gavage.
1) Tissue sampling and extraction of RNA: 6 hours after gavage in mice, took 500 μl of blood from the eyeball, added 1.5 ml Trizol Reagent LS to thoroughly mix and lyse, added 3 ml Trizol Reagent (purchased from Invitrogen) to the tissue samples and homogenized until complete lysis. Tissues sampled: live/stomach/small intestine.
as §1, with “Transcriptase 1.0 μL, RNase inhibitor” for “Transcriptase 1.0 RNase inhibitor”
LightCycler 480 fluorescence quantitative PCR instrumentwas used, and the PCR reaction conditions were: 95° C. , 5 min for pre-denaturation, followed by the PCR amplification cycle: (1) 95° C., 10 s; (2) 55° C., 10 s; (3) 72° C., 20 s; a total of 40 cycles; 40° C. for 10 s in the end to cool down. The forward primer and reverse primer of the amplification reaction were designed and synthesized by Beijing Qing Ke New Industrial Biotechnology Co., Ltd. (U6 F primer: GCGCGTCGTGAAGCGTTC (SEQ ID NO: 23), U6 R primer: GTGCAGGGTCCGAGGT (SEQ ID NO: 24)).
as §2
5) Treatment group of single lipid and nucleic acid mixture: a mixture of 10 μL of single lipid (No. 41) with single-stranded sRNA mixure solution (PGY-sRNA-23, PGY-sRNA-26 and PGY-sRNA-32, 1 nmol each) was treated by heating method and then given to mice via intragastric administration.
2. 12 hours after intragastric administration, the blood was taken from the eyeball, and various tissues (liver/stomach/small intestine) was sampled. TRIzol was used for full lysis and the RNA was extracted to detect the amount of entry.

[5] = 100 μg lipid : 1 nmol sRNA per mouse, 90° C. 15 min

Compound | delivery effect into mouse blood and tissues (heart, spleen, kidney or intestine) compared with POPC [1] | delivery of small RNA (PGY-sRNA-26) into intestine [1, 5] | delivery of HJT-sRNA-m7 single-stranded RNA into A549 cells (real-time PCR) ([2]; single lipid, boiling method, FIGS. 78, 92, 103) | delivery of HJT-sRNA-m7 single-stranded RNA into MRC-5 cells (real-time PCR) [3] | delivery of HJT-sRNA-m7 double-stranded RNA into A549 cells (real-time PCR) [2] | delivery of sRNA single-stranded nucleic acid into mouse blood [4] | delivery of small RNA (PGY-sRNA-26) into kidney [1, 5] | delivery of small RNA (PGY-sRNA-26) into spleen [1, 5]
CC/C=C\C/C=C\C/C=C\CCCCCCCC(=O)OC[C@@H](O)COP(=O)([O-])OCC[N+](C)(C)C [No. 37, (2-{[(2R)-2-hydroxy-3-[(9Z,12Z,15Z)-octadeca-9,12,15-trienoyloxy]propylphosphonato]oxy}ethyl) trimethylazanium] | significantly better than or equivalent to that of POPC | delivers small RNA | delivered single-stranded RNA into A549 and MRC-5 cells | delivered single-stranded RNA into A549 and MRC-5 cells | – | – | – | –
CCCCCC/C=C\CCCCCCCC(=O)OC[C@H](COP(=O)(O)OCCN(C)C)OC(=O)CCCCCCC/C=C\CCCCCC [No. 60, 1,2-dipalmitoleoyl-sn-glycero-3-phospho-ethanolamine-N,N-dimethyl] | significantly better than or equivalent to that of POPC | delivers small RNA | – | – | delivered double-stranded RNA into A549 cells | – | – | –
CCCCCC/C=C\CCCCCCCC(=O)OC[C@H](COP(=O)(O)OCCN(C)C)OC(=O)CCCCCCC/C=C\CCCCCCCC [No. 62, 1-palmitoleoyl-2-oleoyl-sn-glycero-3-phospho-ethanolamine-N,N-dimethyl] | significantly better than or equivalent to that of POPC | delivers small RNA | – | – | delivered double-stranded RNA into A549 cells | – | – | –
CCCCCCCCCCCCCCCC(=O)OCC(COP(=O)(O)OCCN)OC(=O)CCCCCCCCCCCCCCC (centres unmarked) [No. 71, 1,2-Dipalmitoyl-sn-Glycero-3-Phosphatidyl-ethanolamine] | – | – | – | – | – | could effectively deliver sRNA single-stranded nucleic acid into mouse blood via oral administration; also recorded: the delivery effect was better than POPC and Lipofectamine RNAiMAX | – | –
Mono- docosadienoin [No. 42] | significantly better than or equivalent to that of POPC | – | – | – | – | – | delivers small RNA | delivers small RNA
